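Results reflect a 48-hour exposure of cells in 96-well plates to compound at five concentrations. GI50 is the concentration that inhibits growth by half. TGI is the concentration that stops growth completely.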
Test system: MDA-MB-468 breast
Experiment: NCI-60 cell line screen, 48 h

Row | SMILES | GI50 | TGI
1 | COc1cc2c(cc1OCCCCCn1c(-c3ccco3)nc3ccccc31)N=C[C@@H]1CCCN1C2=O | < 0.01 µM | < 0.01 µM
2 | CS(=O)(=O)Nc1cccc(-c2ccc3c(NC(=O)C4CC4)n[nH]c3c2)c1 | 0.622 µM | 24.8 µM
3 | COc1ccc(Cn2cnc3cc(C(=O)Nc4cccc5ccccc45)ccc32)c(OC)c1 | 0.0358 µM | 2.42 µM
4 | O=C1CSC(=S)N1Cc1cccnc1 | 3.82 µM | 17 µM
5 | O=C(Nc1cccnc1)c1cccc([N+](=O)[O-])c1 | > 100 µM | > 100 µM
6 | O=c1oc2ccc(F)cc2c(=O)n1-c1ccc(Cl)cc1F | 1.51 µM | 5.31 µM
7 | CCCCCCCCCCCCCCCCOC(=O)c1c(C)[nH]c(/C=C2\N=C(c3ccc[nH]3)C=C2OC)c1C | 1.66 µM | 5.29 µM
8 | O=C(CC(O)c1ccncc1)c1ccccc1 (configuration not stated) | 24.3 µM | > 100 µM
9 | O=C1/C(=C/c2ccc(Cl)cc2)CN(Cc2cn(CCNc3ccnc4cc(Cl)ccc34)nn2)C/C1=C\c1ccc(Cl)cc1 | 0.234 µM | 0.644 µM
10 | CCCCCCCCCCCCSC(=NC)NC | 1.47 µM | 3.14 µM
11 | C=C(C)[C@@H]1CC[C@]2(C(=O)O)CC[C@]3(C)[C@H](CC[C@@H]4[C@@]5(C)C[C@@H](CC#Cc6ccc(Br)cc6)C(=O)C(C)(C)[C@@H]5CC[C@]43C)[C@@H]12 | 7.25 µM | 33.5 µM
12 | Cc1cc(O)ccc1O | 13.3 µM | 27.3 µM
13 | O=C(Nc1ccc(Cl)cc1)c1ccc([N+](=O)[O-])o1 | 3.08 µM | 14.9 µM
14 | O=C(Nc1cccc([N+](=O)[O-])c1)c1ccc2ccccc2c1O | 3.38 µM | 71.3 µM
15 | CC1(C)N=C(N)N=C(N)N1c1ccc(OCC(=O)N2CCOCC2)c(Cl)c1 | 1.23 µM | > 100 µM
16 | COc1cc(Nc2ncc3c(C)nc(-c4cccc(Oc5ccccc5)c4)n3n2)cc(OC)c1OC | 2.98 µM | 18.4 µM
17 | CC(C)=CCc1ccc(O)c(=O)cc1C(C)C | 0.868 µM | 5.36 µM
18 | Cc1ccc(NSc2ccccc2[N+](=O)[O-])cc1 | 0.57 µM | 16.3 µM
19 | Cn1ccnc1C(=O)/C=C/c1ccc(C(=O)Nc2ccccc2O)cc1 | 1.6 µM | 3.67 µM
20 | O=C(N/N=c1/ccoc2cccnc12)N1CCN(c2ncccn2)CC1 | < 0.01 µM | 1.34 µM
21 | COc1ccc(N(C)c2nc(Cl)nc3ccn(C)c23)cc1 | < 0.01 µM | > 100 µM

Row | SMILES | GI50 | TGI
22 | COc1cc(OC)c2cc(C(=O)O)c(=O)oc2c1 | > 100 µM | > 100 µM
23 | N#Cc1c(NC(=O)c2cccc3ccccc23)sc2c1CCCC2 | 0.154 µM | > 7.22 µM
24 | COc1cc(C2CC(c3ccc(Nc4ccnc5cc(Cl)ccc45)cc3)=NN2C=O)cc(OC)c1OC (configuration not stated) | 1.83 µM | 4.38 µM
25 | CC1CC(C)/C(=N/NC(N)=O)C(C(O)CC2CCC(=O)NC2=O)C1 (configuration not stated) | 9.15 µM | > 100 µM
26 | Cc1ccc(/C=C/C(=O)c2ccc(N)cc2)c(C)c1 | 2.41 µM | 5.13 µM
27 | COc1cc(C(=O)/C=C/c2c(-c3ccc(F)cc3)nc3ncccn23)cc(OC)c1OC | 2.75 µM | 6.89 µM
28 | Cc1cc(NCCCCNc2ccnc3cc(Cl)ccc23)nc(Nc2ccc(C(=O)N3CCCC3)cc2)n1 | 1.82 µM | 4.04 µM
29 | NC(N)=N/N=C(/c1ccccc1)c1ccc(Cl)cc1 | 2.4 µM | 13 µM
30 | O=C1/C(=C/c2ccc([N+](=O)[O-])o2)Oc2ccccc21 | 1.17 µM | 2.94 µM
31 | COc1ccc(Cn2cc3c(c2-c2ccc(O)cc2)CCc2cnoc2-3)cc1 | 0.245 µM | 1.25 µM
32 | CC(=O)Nc1ccc2c(c1)C(=O)c1cccc(F)c1-2 | 15.2 µM | 45.8 µM
33 | O=c1[nH]ccc2nc(-c3ccc(CN4CCC(c5nc(-c6ccccn6)n[nH]5)CC4)cc3)c(-c3ccccc3)cc12 | 0.0887 µM | 7.14 µM
34 | COc1ccc2c(c1)C(=O)/C(=C/c1ccc([N+](=O)[O-])s1)O2 | 0.291 µM | 1.36 µM
35 | CCN(CC)CCCNc1nc2ccccc2c2c(=O)c3cc(Cl)ccc3sc12 | 1.59 µM | 4.85 µM
36 | CCOCC(=O)N[C@H]1CCc2cc(OC(=O)COCC)c(OC)c(OC)c2-c2ccc(SC)c(=O)cc21 | 0.0714 µM | > 100 µM
37 | O=C1Nc2ccccc2/C1=C/c1cn(C(=O)c2c(Cl)cccc2Cl)c2ccccc12 | 4.52 µM | 20.1 µM
38 | COc1ccc2cc3[n+](cc2c1OC)CCc1cc2c(cc1-3)OCO2 | 0.675 µM | 6.78 µM
39 | O=C(NCC(=O)N1CC[C@H](NC2CCC(O)(c3ccc(-c4ncccn4)cn3)CC2)C1)c1cccc(C(F)(F)F)c1 (some centres not stated) | 19.6 µM | 95.4 µM
40 | CCC1=Cc2cc(OC)ccc2OC12C=Cc1cc(OC)ccc1O2 (configuration not stated) | 0.436 µM | > 100 µM
41 | COc1ccc(/C(=N\O)c2cc(OC)c(OC)c(OC)c2)c(OC)c1N | 3.99 µM | > 100 µM
